What was measured:
Assay in all cases: relative viability (nuclei count vs DMSO), 5 days (fraction); higher = more cells survive
RAF265 + Foretinib = compound: Cn1c(Nc2ccc(C(F)(F)F)cc2)nc2cc(Oc3ccnc(-c4ncc(C(F)(F)F)[nH]4)c3)ccc21 [RAF265] + COc1cc2c(Oc3ccc(NC(=O)C4(C(=O)Nc5ccc(F)cc5)CC4)cc3F)ccnc2cc1OCCCN1CCOCC1 [Foretinib] (partner 0.25 µM)
Procedure, shortened: (§1)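 Cells from lung cancer lines were seeded into 1536-well plates and, one day later, dosed by pin tool. Treatments were either a single drug or a fixed dose of an anchor drug with five library-drug doses (not always all listed) in √10 steps. After 5 days, nuclei were stained in a one-step fixation (final 0.05% Triton X-100, 1% formaldehyde, 1 ug/ml Hoechst) and counted on 4× images, and relative viability is the treated-to-vehicle nuclei ratio, as the median of duplicate plates.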

Doramapimod + AZD7762 = compound: Cc1ccc(-n2nc(C(C)(C)C)cc2NC(=O)Nc2ccc(OCCN3CCOCC3)c3ccccc23)cc1 [Doramapimod] + NC(=O)Nc1cc(-c2cccc(F)c2)sc1C(=O)N[C@H]1CCCNC1 [AZD7762] (partner 0.2 µM)
Procedure, shortened: as §1

RAF265 + Dasatinib = compound: Cn1c(Nc2ccc(C(F)(F)F)cc2)nc2cc(Oc3ccnc(-c4ncc(C(F)(F)F)[nH]4)c3)ccc21 [RAF265] + Cc1nc(Nc2ncc(C(=O)Nc3c(C)cccc3Cl)s2)cc(N2CCN(CCO)CC2)n1 [Dasatinib] (partner 0.075 µM)
Procedure, shortened: as §1

IPA-3 + Pemetrexed = compound: C1=CC=C2C(=C1)C=CC(=C2SSC3=C(C=CC4=CC=CC=C43)O)O [IPA-3] + Nc1nc2[nH]cc(CCc3ccc(C(=O)N[C@@H](CCC(=O)O)C(=O)O)cc3)c2c(=O)[nH]1 [Pemetrexed] (partner 0.2 µM)
Procedure, shortened: as §1

Cell Line	relative viability (RAF265 + Foretinib; first compound 0.01 µM)	relative viability (RAF265 + Foretinib; first compound 0.03162 µM)	relative viability (RAF265 + Foretinib; first compound 0.1 µM)	relative viability (RAF265 + Foretinib; first compound 0.3162 µM)	relative viability (RAF265 + Foretinib; first compound 1 µM)	relative viability (Doramapimod + AZD7762; first compound 0.02 µM)	relative viability (Doramapimod + AZD7762; first compound 0.06325 µM)	relative viability (Doramapimod + AZD7762; first compound 0.2 µM)	relative viability (Doramapimod + AZD7762; first compound 0.6325 µM)	relative viability (Doramapimod + AZD7762; first compound 2 µM)	relative viability (RAF265 + Dasatinib; first compound 0.01 µM)	relative viability (RAF265 + Dasatinib; first compound 0.03162 µM)	relative viability (RAF265 + Dasatinib; first compound 0.1 µM)	relative viability (RAF265 + Dasatinib; first compound 0.3162 µM)	relative viability (RAF265 + Dasatinib; first compound 1 µM)	relative viability (IPA-3 + Pemetrexed; first compound 0.2 µM)	relative viability (IPA-3 + Pemetrexed; first compound 0.6325 µM)	relative viability (IPA-3 + Pemetrexed; first compound 2 µM)	relative viability (IPA-3 + Pemetrexed; first compound 6.325 µM)	relative viability (IPA-3 + Pemetrexed; first compound 20 µM)
NCI-H2347	0.93	0.971	0.81	0.592	0.803	0.733	0.831	0.711	0.757	0.781	0.358	0.331	0.341	0.213	0.237	0.418	0.416	0.76	0.452	0.433
SW 900	1.01	0.835	0.748	0.769	0.546	0.569	0.72	0.551	0.76	0.486	0.595	0.548	0.552	0.297	0.272	0.544	0.456	0.472	0.441	0.527
LXF-289	0.999	0.986	0.938	0.875	0.709	1.07	1.16	1.14	1.1	1.12	0.246	0.152	0.16	0.142	0.0862	0.949	0.786	0.963	0.996	0.925
NCI-H1793	0.632	0.616	0.624		0.261	0.381	0.326	0.523	0.321	0.243	0.486	0.401	0.361		0.227	1.33	0.736	0.927	0.923	0.632
LU99A	0.837	0.745	0.624	0.522	0.332	0.349	0.37	0.339	0.339	0.326	0.534	0.454	0.472	0.3	0.179	0.188	0.189	0.143	0.187	0.175
PC-14	0.969	1.01	0.928		0.817	0.521	0.539	0.353	0.378	0.325	0.262	0.274	0.241		0.0905	0.123	0.132	0.135	0.124	0.132
NCI-H2085	0.859	0.929	0.957	0.987	1.06	1.07	0.978	1.01	1.08	1.02	0.241	0.315	0.289	0.205	0.276	0.89	0.828	0.864	0.821	0.993
NCI-H2170	1.05	0.971	0.978	0.805	0.88	0.828	0.948	0.889	1.07	0.851	0.663	0.474	0.539	0.241	0.432	0.254	0.28	0.243	0.28	0.273

From the supplement of paper PMC10307832
